# Measurements from patent US6559280B2, “Controlling protein levels in eucaryotic organisms” (Proteinix, Inc., priority 1999, dated 2003).
# Non-standard residues stand in square brackets, D forms with d. No end group written: not given here. Ahx = NCCCCCC(=O)O
# Tests used:
# [1] = system: [125I]-lysozyme degradation in the reticulocyte lysate; test: inhibition of [125I]-lysozyme degradation in reticulocyte lysate by ubiquitination recognition elements; type: biochemical, rabbit; conditions: for lysozyme degradation, result at the 2 hour time point: no treatment 12,475 cpm
# Experimental: Proteins were labeled by Lofstrand Laboratories Ltd. (Gaithersburg, Md.) Labeled to […] by oxidation of Na^125I using an iodobead chloramine-T procedure. The ubiquitin-dependent protein degradation assay was preformed by the addition of 70 μL of rabbit reticulocyte lysate and 5 uL of 0.06 μCi/μL ^25I-labeled protein to […] of reaction buffer containing 40 mM Tris pH 7.6, 2 mM DTT, 5 mM MgCl2, 0.5 mM ATP, 35 μg creatine phosphokinase (Sigma) and 10 mM phosphocreatine. The reaction were run at 37 C. in a heating block, and at time points 30 μL of the reaction was transferred to 50 μl of cold 100 mg/mL BSA and protein was precipitated by the addition of 420 μL of 23% TCA followed by 15 min on ice. The precipitated samples were microfuged for 2 min at 5000 rpm and 300 μL of supernatant was then counted for TCA-soluble ^125I on a gamma counter (Hidex).
# In order to determine if a given molecule or molecular element is potentially valuable as a ubiquitination recognition element the assay described above is run with [^125I]-lysozyme or other labeled protein substrates in the presence of potential ubiquitination recognition elements.
# The results at the 2 hour time point were 12,475 cpm for no treatment, 6,486 cpm for the 2 mM Arg-εAhx-Cys treatment and 3,592 cpm for the 5 mM Phe-εAhx-Cys treatment.
# [2] = system: E2 ubiquitination reaction; conditions: patent application GB 2,320,570; cited from earlier work
Molecule,effect on lysozyme degradation in the reticulocyte lysate [1],"lysozyme degradation, result at the 2 hour time point ([1]; 5 mM treatment)",inhibition of an E2 ubiquitination reaction [2],"lysozyme degradation, result at the 2 hour time point ([1]; 2 mM treatment)"
"Phe-εAhx-Cys (Phe-[Ahx]-Cys) [ubiquitination recognition element, Type II recognition with caproic acid linker and C-terminal Cys]",inhibition of the lysozyme degradation,"3,592 cpm",,
"O=S(=O)(O)c1cc(Nc2nc(Cl)nc(Nc3ccc(Cl)c(Nc4nc(Cl)nc(Nc5cc(S(=O)(=O)O)cc6cc(S(=O)(=O)O)c(N=Nc7ccc8ccccc8c7S(=O)(=O)O)c(O)c56)n4)c3)n2)c2c(O)c(N=Nc3ccc4ccccc4c3S(=O)(=O)O)c(S(=O)(=O)O)cc2c1 [compound Z, 1-chloro-2,4-bis{4-[2-chloro-6-(5-(2,7-disulfo-4-hydroxy-3-(2-(1-sulfonaphthyl)azo)naphthyl)amino)-1,3,5-triazinyl]amino}benzene]",,,inhibited an E2 ubiquitination reaction,
"Arg-εAhx-Cys (Arg-[Ahx]-Cys) [ubiquitination recognition element, Type I recognition with caproic acid linker and C-terminal Cys]",inhibition of the lysozyme degradation,,,"6,486 cpm"
